Measurements: paper PMC7899551, “Phase 1 study of Z-endoxifen in patients with advanced gynecologic, desmoid, and hormone receptor-positive solid tumors” (Oncotarget, 2021)
“And” between values parts separate entries of the source, which are not always exact repeats. Equal values may be shown once. Read-outs that look alike come from different tables or passages of the source.

Assay: Plasma pharmacokinetics of Z-endoxifen (HPLC assay, non-compartmental analysis)
Type: in vivo, human
Procedure: This was an open-label trial of Z-endoxifen in patients with advanced solid tumors (https://clinicaltrials.gov/ identifier: NCT01273168). Z-endoxifen-HCl was supplied by the Pharmaceutical Management Branch, National Cancer Institute, as 20 and 40 mg capsules; agent was administered orally once daily on a continuous schedule in 28-day cycles with a starting dose of 20 mg/day taken either 1 hour before or 2 hours after meals. Dose escalation followed a traditional 3+3 design in which patients were dose-escalated to the next dose level (DL) in cohorts of 3 patients until dose-limiting toxicity (DLT) was observed. DLT was defined as an adverse event that occurred during cycle 1, was thought to be related to study drug administration, and met one of the following criteria: grade ≥ 3 non-hematologic toxicities (except diarrhea, nausea and vomiting, alopecia, rising creatinine or electrolyte toxicities that resolved within 24 hours, or intolerable estrogen withdrawal symptoms) or grade ≥ 3 hematologic toxicities (except neutropenia lasting less than 5 days, lymphopenia, or anemia). Eight dose levels (DL1-8) were examined: 20, 40, 60, 100, 140, 200, 280, and 360 mg, respectively. Two patients at DL8 received the free base form of Z-endoxifen on day 1 rather than the hydrochloride salt to assess the pharmacokinetics of that formulation.
A 3-mL blood sample was collected in a K2 EDTA tube on day 1 of cycle 1 before drug administration and at the following times post-first dose: 0.5, 1, 2, 3, 4, 6, 8, and 24 hours. Samples were collected at the same time points on day 28 of cycle 1 for DL1-6 until a protocol amendment eliminated the requirement for these samples at the higher dose levels. Samples were wrapped in aluminum foil after collection to protect from light exposure. A 10-mL aliquot of urine was collected before agent administration on cycle 1 day 1, for 24 hours after dosing on day 1, and before drug administration on cycle 2 day 1; samples were refrigerated prior to analysis.
Plasma and urine concentrations of Z- and E-endoxifen were measured using a validated, post-column fluorescence derivatization HPLC assay. Non-compartmental pharmacokinetic parameters were calculated using WinNonlin version 7.0 (Pharsight Corp., Mountainview, CA, USA). A 2 μM Cmax target was established for day 28 plasma concentration. The amount of Z-endoxifen excreted in urine was measured over a 24-hour collection period.

[1] = DL1 20 mg oral, day 1, individual patients, listed as Z-endoxifen HCl
[2] = DL1 20 mg/day oral, day 28, individual patients, listed as Z-endoxifen HCl
[3] = DL2 40 mg oral, day 1, individual patients, listed as Z-endoxifen HCl
[4] = DL2 40 mg/day oral, day 28, individual patients, listed as Z-endoxifen HCl
[5] = DL3 60 mg oral, day 1, individual patients, listed as Z-endoxifen HCl
[6] = DL3 60 mg/day oral, day 28, individual patients, listed as Z-endoxifen HCl
[7] = DL4 100 mg oral, day 1, individual patients, listed as Z-endoxifen HCl
[8] = DL5 140 mg oral, day 1, individual patients, listed as Z-endoxifen HCl
[9] = DL5 140 mg/day oral, day 28, individual patients, listed as Z-endoxifen HCl
[10] = DL6 200 mg oral, day 1, individual patients, listed as Z-endoxifen HCl
[11] = DL6 200 mg/day oral, day 28, individual patients, listed as Z-endoxifen HCl
[12] = DL7 280 mg oral, day 1, individual patients, listed as Z-endoxifen HCl
[13] = DL8 360 mg oral, day 1, individual patients, listed as Z-endoxifen HCl

CC/C(=C(\c1ccc(O)cc1)c1ccc(OCCNC)cc1)c1ccccc1 [Z-endoxifen]
AUC(0-24h) [1]: 1.055 µg·h/mL and 1.169 µg·h/mL | C24h [1]: 0.0326 µg/mL and 0.0327 µg/mL | Cmax [1]: 0.0612 µg/mL and 0.0677 µg/mL | AUC(0-24h) [2]: 4.469 µg·h/mL and 5.313 µg·h/mL | Adjusted Half-Life [2]: 61.8 h and 67.0 h | C24h [2]: 0.0488 µg/mL and 0.1396 µg/mL and 0.2066 µg/mL | Cmax [2]: 0.2837 µg/mL and 0.3741 µg/mL | Tmax [2]: 0.0 h | AUC(0-24h) [3]: 1.715 µg·h/mL and 1.336 µg·h/mL and 1.764 µg·h/mL and 2.162 µg·h/mL | C24h [3]: 0.0436 µg/mL and 0.0549 µg/mL and 0.0337 µg/mL and 0.0552 µg/mL and 0.075 µg/mL | Cmax [3]: 0.1211 µg/mL and 0.0938 µg/mL and 0.1023 µg/mL and 0.1603 µg/mL | AUC(0-24h) [4]: 3.871 µg·h/mL and 4.832 µg·h/mL | Adjusted Half-Life [4]: 36.6 h | C24h [4]: 0.1118 µg/mL and 0.1945 µg/mL | Cmax [4]: 0.2318 µg/mL and 0.2207 µg/mL | Tmax [4]: 3.0 h | Adjusted Half-Life, Mean (DL2 40 mg/day oral, day 28, mean): 40.4 h | AUC(0-24h) [5]: 1.953 µg·h/mL and 2.836 µg·h/mL | C24h [5]: 0.0722 µg/mL and 0.0862 µg/mL | Cmax [5]: 0.109 µg/mL and 0.166 µg/mL | Tmax [5]: 24.0 h and 6.1 h | AUC(0-24h) [6]: 3.432 µg·h/mL and 9.961 µg·h/mL and 10.846 µg·h/mL | Adjusted Half-Life [6]: 26.0 h and 76.2 h and 54.9 h | C24h [6]: 0.1694 µg/mL and 0.5212 µg/mL and 0.3456 µg/mL | Cmax [6]: 0.1996 µg/mL and 0.5212 µg/mL and 0.5311 µg/mL | Tmax [6]: 0.5 h and 24.0 h | Adjusted Half-Life, Mean (DL3 60 mg/day oral, day 28, mean): 52.4 h | AUC(0-24h) [7]: 4.834 µg·h/mL and 5.511 µg·h/mL | C24h [7]: 0.157 µg/mL and 0.175 µg/mL | Cmax [7]: 0.301 µg/mL and 0.324 µg/mL | Cmax (DL4 100 mg/day oral, day 28, individual patients, listed as Z-endoxifen HCl): 0.719 µg/mL | AUC(0-24h) [8]: 7.2 µg·h/mL and 14.65 µg·h/mL and 7.425 µg·h/mL | C24h [8]: 0.209 µg/mL and 0.509 µg/mL and 0.216 µg/mL | Cmax [8]: 0.38 µg/mL and 0.957 µg/mL and 0.494 µg/mL | AUC(0-24h) [9]: 16.591 µg·h/mL | Adjusted Half-Life [9]: 28.1 h | C24h [9]: 0.528 µg/mL | Cmax [9]: 1.485 µg/mL and 0.881 µg/mL | Tmax [9]: 3.0 h | AUC(0-24h) [10]: 12.52 µg·h/mL and 8.804 µg·h/mL | C24h [10]: 0.457 µg/mL and 0.271 µg/mL | Cmax [10]: 0.299 µg/mL and 0.76 µg/mL and 0.492 µg/mL | AUC(0-24h) [11]: 16.69 µg·h/mL and 52.925 µg·h/mL and 22.641 µg·h/mL | Adjusted Half-Life [11]: 61.6 h and 33.8 h | C24h [11]: 0.787 µg/mL and 1.814 µg/mL and 0.606 µg/mL | Cmax [11]: 0.984 µg/mL and 2.574 µg/mL and 1.364 µg/mL | mean C24 h relative to the 5.9 ng/mL threshold associated with clinical benefit on tamoxifen (DL6, Day 28): more than 180 fold | AUC(0-24h) [12]: 15.935 µg·h/mL and 10.46 µg·h/mL and 11.355 µg·h/mL and 13.153 µg·h/mL and 13.081 µg·h/mL and 24.217 µg·h/mL and 16.532 µg·h/mL | C24h [12]: 0.485 µg/mL and 0.345 µg/mL and 0.384 µg/mL and 0.467 µg/mL and 0.337 µg/mL and 0.687 µg/mL and 0.574 µg/mL | Cmax [12]: 0.825 µg/mL and 0.715 µg/mL and 0.887 µg/mL and 0.796 µg/mL and 1.395 µg/mL and 1.007 µg/mL | Tmax (DL8 360 mg oral, day 1, individual patients): 3.0 h | AUC(0-24h) [13]: 32.079 µg·h/mL and 21.926 µg·h/mL and 23.576 µg·h/mL and 20.747 µg·h/mL and 22.52 µg·h/mL and 9.274 µg·h/mL and 13.704 µg·h/mL | C24h [13]: 1.19 µg/mL and 0.722 µg/mL and 0.653 µg/mL and 0.801 µg/mL and 0.658 µg/mL and 0.213 µg/mL and 0.493 µg/mL | Cmax [13]: 1.841 µg/mL and 1.352 µg/mL and 1.374 µg/mL and 1.432 µg/mL and 1.437 µg/mL and 0.78 µg/mL and 0.948 µg/mL | Tmax [13]: 3.0 h | Cmax, Mean (HCl salt, 360 mg oral, day 2 (after free base on day 1), mean of patients 35 and 36): 2.36 µg/mL | AUC(0–24 h) (HCl salt, 360 mg oral, day 2 (after free base on day 1), patients 35 and 36 individually, listed as Z-endoxifen HCl): 23.709 µg·h/mL and 59.421 µg·h/mL | plasma concentration achieved by all patients (all dose levels): > 0.00597 µg/mL | AUC(0–24h) dependence on dose (day 1, DL1-8): linear increase with dose | concentration at 24 h (human, plasma, oral, 20 mg, DL1, calculated from C24h in ng/mL, read-out: Plasma concentration 24 hours after the first dose): 0.067 µM | concentration at 28 day (human, plasma, oral, 20 mg, DL1, read-out: day 28 trough concentration, range): 0.0488 to 0.207 µg/mL | concentration at 28 day (human, plasma, oral, 20 mg/day, DL1 (20 mg/day), day 28, read-out: average plasma concentration): 0.353 µM | concentration at 28 day (human, plasma, oral, 360 mg, DL8, if accumulation similar to lower dose levels, read-out: estimated day 28 concentration): 1220 ng/mL to 2970 ng/mL and 3.3 µM to 7.9 µM | concentration at 24 h (human, plasma, oral, 360 mg, DL8, calculated from C24h in ng/mL, read-out: Plasma concentration 24 hours after the first dose): 1.81 µM | half-life (human, plasma, oral, range over dose levels, read-out: elimination half-life (t½)): 30.6 to 55.9 h | AUC(0-t) (human, plasma, po, 20 mg, DL1 20 mg oral, day 1, individual patients, read-out: AUC(0-24h)): 1.03 µg·h/mL | concentration at 24 h (human, plasma, po, 20 mg, DL1 20 mg oral, day 1, individual patients, read-out: C24h): 0.0252 µg/mL | Cmax (human, plasma, po, 20 mg, DL1 20 mg oral, day 1, individual patients, read-out: Cmax): 0.0769 µg/mL | Tmax (human, plasma, po, 20 mg, DL1 20 mg oral, day 1, individual patients, read-out: Tmax): 3 h | AUC(0-t) (human, plasma, po, 20 mg, DL1 20 mg oral, day 1, mean, read-out: AUC(0-24h), Mean): 1.08 µg·h/mL | concentration at 24 h (human, plasma, po, 20 mg, DL1 20 mg oral, day 1, mean, read-out: C24h, Mean): 0.0302 µg/mL | Cmax (human, plasma, po, 20 mg, DL1 20 mg oral, day 1, mean, read-out: Cmax, Mean): 0.0686 µg/mL | Tmax (human, plasma, po, 20 mg, DL1 20 mg oral, day 1, mean, read-out: Tmax, Mean): 3.7 h | AUC(0-t) (human, plasma, po, 20 mg/day, DL1 20 mg/day oral, day 28, individual patients, read-out: AUC(0-24h)): 2.96 µg·h/mL | half-life (human, plasma, po, 20 mg/day, DL1 20 mg/day oral, day 28, individual patients, read-out: Adjusted Half-Life (converted)): 38.9 h | Cmax (human, plasma, po, 20 mg/day, DL1 20 mg/day oral, day 28, individual patients, read-out: Cmax): 0.201 µg/mL | AUC(0-t) (human, plasma, po, 20 mg/day, DL1 20 mg/day oral, day 28, mean, read-out: AUC(0-24h), Mean): 4.25 µg·h/mL | half-life (human, plasma, po, 20 mg/day, DL1 20 mg/day oral, day 28, mean, read-out: Adjusted Half-Life, Mean (converted)): 55.9 h | concentration at 24 h (human, plasma, po, 20 mg/day, DL1 20 mg/day oral, day 28, mean, read-out: C24h, Mean): 0.132 µg/mL
